In patent US20250179056A1, “NOVEL SULFATE SALT FORMS OF ISOCHROMAN-IMIDAZOLE STRUCTURED ALPHA-2A ADRENOCEPTOR AGONIST” (ORION CORPORATION, priority 2022, published 2025):
Entries after “also recorded” stand apart in the source; their conditions may differ.

Test: Slurry experiments (SLC, SL, SLT) started with crystalline form 1; wet powders analyzed by XRPD
Type: physicochemical
Conditions: for Resulting crystalline form SLC: aged at 5° C. under magnetic stirring; for Resulting crystalline form SLT: aged at 40° C. in shaker at 700 rpm; for Resulting crystalline form SL: aged at room temperature under magnetic stirring
Procedure: The slurry experiments (SLC, SL and SLT) were carried out with the crystalline form 1 in different conditions. 15 mg of starting material were mixed with 200 μl of solvent or solvent mixture (at a concentration of about 75 mg/ml). The mixture was homogenized by vortexing for 10 seconds. The resulting suspensions were aged at different conditions: a) at 5° C. under magnetic stirring (SLC), b) at room temperature under magnetic stirring (SL), and c) at 40° C. in the shaker at 700 rpm (SLT). During the aging time, the samples were checked regularly, and solvent was added if needed. After completing the aging time, the vials were opened, and the (wet) powders were analyzed by XRPD.

[1] = slurry in 2-Butanone, about 75 mg/ml
[2] = slurry in 2-Ethoxy ethanol, about 75 mg/ml
[3] = slurry in 2-Methyltetrahydrofuran, about 75 mg/ml
[4] = slurry in Acetone/Water (86:14 vol %), water activity 0.75, about 75 mg/ml
[5] = slurry in Acetonitrile/Water (96:4 vol %), water activity 0.60, about 75 mg/ml
[6] = slurry in Ethanol, about 75 mg/ml
[7] = slurry in Ethanol/Water (26:74 vol %), water activity >0.9, about 75 mg/ml
[8] = slurry in Methanol/Water (20:80 vol %), water activity >0.9, about 75 mg/ml
[9] = slurry in THF/Water (90:10 vol %), water activity 0.88, about 75 mg/ml
[10] = slurry in Water (water activity 1), about 75 mg/ml

COc1cccc2c1CCOC2C1=NCCN1.O=S(=O)(O)O (stereo not shown) [Form 1, 2-(5-methoxyisochroman-1-yl)-4,5-dihydro-1H-imidazole sulfate crystalline form 1]
Resulting crystalline form SLC [1]: Form 1
Resulting crystalline form SLT [1]: Form 1
Resulting crystalline form SL [1]: Form 1
Resulting crystalline form SLT [2]: Form 4
Resulting crystalline form SL [2]: Form 4
Resulting crystalline form SLC [3]: Form 1
Resulting crystalline form SLT [3]: Form 1
Resulting crystalline form SL [3]: Form 1
Resulting crystalline form SLC [4]: Form 1
Resulting crystalline form SLT [4]: Form 1
Resulting crystalline form SL [4]: Form 1
Resulting crystalline form SLC [5]: Form 1
Resulting crystalline form SLT [5]: Form 1
Resulting crystalline form SL [5]: Form 1
Resulting crystalline form SLC [6]: Form 1
Resulting crystalline form SLT [6]: Form 1
Resulting crystalline form SL [6]: Form 1
Resulting crystalline form SLC [7]: Form 2; also recorded: (+Form 1)
Resulting crystalline form SLT [7]: Form 2
Resulting crystalline form SL [7]: Form 2
Resulting crystalline form SLC [8]: Form 2
Resulting crystalline form SLT [8]: Form 2
Resulting crystalline form SL [8]: Form 2
Resulting crystalline form SLC [9]: Form 1
Resulting crystalline form SLT [9]: Form 1
Resulting crystalline form SLC [10]: Form 2
Resulting crystalline form SLT [10]: Form 2
Resulting crystalline form SL [10]: Form 2
